Target: human adenosine A2b receptor (Homo sapiens (Human), UniProt P29275)
Assay: Cellular in vitro reporter gene test for A2b receptor activity (CHO-K1, CRE-luciferase, NECA stimulation)
Assay type: cell-based
Conditions: recombinant CHO-K1 cell line, CRE-luciferase reporter, antagonism of EC50 concentration of NECA; in some cases means of several determinations, rounded to two significant figures; read-out: A2b receptor IC50
Outline: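 CHO-K1 cells with CRE-driven luciferase; antagonists co-incubated with NECA at its EC50, determined in a pre-experiment on each test day. Luciferase read by luminescence 3 h after NECA addition.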

Chain of human adenosine A2b receptor (P29275 whole entry): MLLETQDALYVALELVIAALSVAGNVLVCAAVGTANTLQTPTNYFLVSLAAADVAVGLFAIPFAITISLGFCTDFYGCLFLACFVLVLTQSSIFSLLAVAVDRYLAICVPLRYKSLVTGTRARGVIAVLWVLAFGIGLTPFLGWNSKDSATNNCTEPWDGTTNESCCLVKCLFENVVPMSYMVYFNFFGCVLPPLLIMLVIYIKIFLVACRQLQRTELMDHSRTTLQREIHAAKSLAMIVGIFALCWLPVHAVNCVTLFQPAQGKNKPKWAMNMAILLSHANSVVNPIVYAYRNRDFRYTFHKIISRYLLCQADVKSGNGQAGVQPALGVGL

With `COCCn1c(=O)n(C(C)C(F)(F)F)c(=O)c2c(C)c(CN3CCNC3=NC(=O)OC)sc21` (racemic) [Example 471, Methyl [1-{[1-(2-methoxyethyl)-5-methyl-2,4-dioxo-3-(1,1,1-trifluoropropan-2-yl)-1,2,3,4-tetrahydrothieno[2,3-d]pyrimidin-6-yl]methyl}imidazolidin-2-ylidene]carbamate] the IC50 was 18 nM.

`COC(C)Cn1c(=O)c2c(C)c(CN3CCNC(=O)C3=O)sc2n(CCC(F)(F)F)c1=O` (single isomer, unassigned) [Example 495, 6-[(2,3-Dioxopiperazin-1-yl)methyl]-3-(2-methoxypropyl)-5-methyl-1-(3,3,3-trifluoropropyl)thieno[2,3-d]pyrimidine-2,4(1H,3H)-dione] gave an IC50 of 57 nM.

`Cc1c(CN2CCNC2=NC#N)sc2c1c(=O)n(CC(C)(C)C)c(=O)n2CC1CCCO1` (racemic) [Example 446, [1-{[3-(2,2-Dimethylpropyl)-5-methyl-2,4-dioxo-1-(tetrahydrofuran-2-ylmethyl)-1,2,3,4-tetrahydrothieno[2,3-d]pyrimidin-6-yl]methyl}imidazolidin-2-ylidene]cyanamide] showed an IC50 of 19 nM.

`COC(=O)N=C1NCCN1Cc1sc2c(c1C)c(=O)n(CC(F)(F)F)c(=O)n2CCC(F)(F)F` [Example 381, Methyl [1-{[5-methyl-2,4-dioxo-3-(2,2,2-trifluoroethyl)-1-(3,3,3-trifluoropropyl)-1,2,3,4-tetrahydrothieno[2,3-d]pyrimidin-6-yl]methyl}imidazolidin-2-ylidene]carbamate] was tested, and the IC50 was 4.1 nM.

In the case of `COCCn1c(=O)n(CC(C)(C)C)c(=O)c2c(C)c(CN3CCNC(=O)C3=O)sc21` [Example 274, 3-(2,2-Dimethylpropyl)-6-[(2,3-dioxopiperazin-1-yl)methyl]-1-(2-methoxyethyl)-5-methylthieno[2,3-d]pyrimidine-2,4(1H,3H)-dione], the IC50 is reported as 24 nM.

`CCn1c(=O)c2c(C)c(CN3CCNC3=S)sc2n(CC2CCCCO2)c1=O` (single isomer, unassigned) [Example 142, 3-Ethyl-5-methyl-1-(tetrahydro-2H-pyran-2-ylmethyl)-6-[(2-thioxoimidazolidin-1-yl)methyl]thieno[2,3-d]pyrimidine-2,4(1H,3H)-dione] was tested, and the IC50 was 13 nM.

`CCn1c(=O)c2c(C)c(CN3CCNC3=S)sc2n(CCCOC)c1=O` [Example 296, 3-Ethyl-1-(3-methoxypropyl)-5-methyl-6-[(2-thioxoimidazolidin-1-yl)methyl]thieno[2,3-d]pyrimidine-2,4(1H,3H)-dione] gave an IC50 of 16 nM.

Work on `CCn1c(=O)c2c(C)c(CN3CCNC3=O)sc2n(C)c1=O` [Example 76, 3-Ethyl-1,5-dimethyl-6-[(2-oxoimidazolidin-1-yl)methyl]thieno[2,3-d]pyrimidine-2,4(1H,3H)-dione] yielded an IC50 of 9.3 nM.

`COCCn1c(=O)n(C(C)C)c(=O)c2c(C)c(CN3CCNC(=O)C3=O)sc21` [Example 479, 6-[(2,3-Dioxopiperazin-1-yl)methyl]-3-isopropyl-1-(2-methoxyethyl)-5-methylthieno[2,3-d]pyrimidine-2,4(1H,3H)-dione] was tested, and the IC50 was 140 nM.

Compound `CCn1c(=O)c2c(C)c(CN3CCN(C(C)C)C3=S)sc2n(CCOC)c1=O` [Example 174, 3-Ethyl-6-[(3-isopropyl-2-thioxoimidazolidin-1-yl)methyl]-1-(2-methoxyethyl)-5-methylthieno[2,3-d]pyrimidine-2,4(1H,3H)-dione] has an IC50 of 49 nM.

`Cc1c(CN2CCNC(=O)C2=O)sc2c1c(=O)n(CC(C)(C)C)c(=O)n2CC1CCCO1` (single isomer, unassigned) [Example 484, 3-(2,2-Dimethylpropyl)-6-[(2,3-dioxopiperazin-1-yl)methyl]-5-methyl-1-(tetrahydrofuran-2-ylmethyl)thieno[2,3-d]pyrimidine-2,4(1H,3H)-dione] was tested, and the IC50 was 67 nM.

`COCCn1c(=O)c2c(C)c(CN3CCNC3=O)sc2n(CCCF)c1=O` [Example 230, 1-(3-Fluoropropyl)-3-(2-methoxyethyl)-5-methyl-6-[(2-oxoimidazolidin-1-yl)methyl]thieno[2,3-d]pyrimidine-2,4(1H,3H)-dione] gave an IC50 of 12 nM.

`CCn1c(=O)c2c(C(F)F)c(CN3CCNC3=S)sc2n(CCOC)c1=O` [Example 45, 5-(Difluoromethyl)-3-ethyl-1-(2-methoxyethyl)-6-[(2-thioxoimidazolidin-1-yl)methyl]thieno[2,3-d]pyrimidine-2,4(1H,3H)-dione] showed an IC50 of 12 nM.

For `CCn1c(=O)c2c(C)c(Cn3c(C)c[nH]c3=O)sc2n(CCC(F)(F)F)c1=O` [Example 251, 3-Ethyl-5-methyl-6-[(5-methyl-2-oxo-2,3-dihydro-1H-imidazol-1-yl)methyl]-1-(3,3,3-trifluoropropyl)thieno[2,3-d]pyrimidine-2,4(1H,3H)-dione], the IC50 was 1.3 nM.

Compound `CCn1c(=O)c2c(C)c(CN3CCNC3=NC#N)sc2n(CC2CCCO2)c1=O` (single isomer, unassigned) [Example 261, [1-{[3-Ethyl-5-methyl-2,4-dioxo-1-(tetrahydrofuran-2-ylmethyl)-1,2,3,4-tetrahydrothieno[2,3-d]pyrimidin-6-yl]methyl}imidazolidin-2-ylidene]cyanamide] has an IC50 of 9.9 nM.

Compound `CCn1c(=O)c2c(C)c(Cn3cc(C)[nH]c3=O)sc2n(CCC(F)(F)F)c1=O` [Example 250, 3-Ethyl-5-methyl-6-[(4-methyl-2-oxo-2,3-dihydro-1H-imidazol-1-yl)methyl]-1-(3,3,3-trifluoropropyl)thieno[2,3-d]pyrimidine-2,4(1H,3H)-dione] has an IC50 of 18 nM.

For `Cc1c(Cn2[nH]ccc2=O)sc2c1c(=O)n(CC(F)(F)F)c(=O)n2CC1CCCO1` (single isomer, unassigned) [Example 286, 5-Methyl-6-[(5-oxo-2,5-dihydro-1H-pyrazol-1-yl)methyl]-1-(tetrahydrofuran-2-ylmethyl)-3-(2,2,2-trifluoroethyl)thieno[2,3-d]pyrimidine-2,4(1H,3H)-dione], the IC50 was 220 nM.

For `CCn1c(=O)c2c(C)c(CN3CCNC(=O)C3=O)sc2n(CC2CCCO2)c1=O` (single isomer, unassigned) [Example 476, 6-[(2,3-Dioxopiperazin-1-yl)methyl]-3-ethyl-5-methyl-1-(tetrahydrofuran-2-ylmethyl)thieno[2,3-d]pyrimidine-2,4(1H,3H)-dione], the IC50 was 140 nM.

`Cc1c(CN2CCNC2=O)sc2c1c(=O)n(CC(C)C)c(=O)n2CCC(F)(F)F` [Example 87, 3-Isobutyl-5-methyl-6-[(2-oxoimidazolidin-1-yl)methyl]-1-(3,3,3-trifluoropropyl)thieno[2,3-d]pyrimidine-2,4(1H,3H)-dione] showed an IC50 of 2.3 nM.

In the case of `Cc1c(CN2CCNC2=O)sc2c1c(=O)n(CC(F)F)c(=O)n2CC1COC1` [Example 222, 3-(2,2-Difluoroethyl)-5-methyl-1-(oxetan-3-ylmethyl)-6-[(2-oxoimidazolidin-1-yl)methyl]thieno[2,3-d]pyrimidine-2,4(1H,3H)-dione], the IC50 is reported as 13 nM.

Compound `Cc1c(Cn2cc[nH]c2=O)sc2c1c(=O)n(CC(F)(F)F)c(=O)n2CC1CCCO1` (racemic) [Example 341, 5-Methyl-6-[(2-oxo-2,3-dihydro-1H-imidazol-1-yl)methyl]-1-(tetrahydrofuran-2-ylmethyl)-3-(2,2,2-trifluoroethyl)thieno[2,3-d]pyrimidine-2,4(1H,3H)-dione] has an IC50 of 12 nM.

`CCn1c(=O)c2c(C)c(CN3CCNC3=O)sc2n(CCF)c1=O` [Example 50, 3-Ethyl-1-(2-fluoroethyl)-5-methyl-6-[(2-oxoimidazolidin-1-yl)methyl]thieno[2,3-d]pyrimidine-2,4(1H,3H)-dione] showed an IC50 of 4.6 nM.

`CCn1c(=O)c2c(C)c(Cn3nc[nH]c3=O)sc2n(CCCOC)c1=O` [Example 354, 3-Ethyl-1-(3-methoxypropyl)-5-methyl-6-[(5-oxo-4,5-dihydro-1H-1,2,4-triazol-1-yl)methyl]thieno[2,3-d]pyrimidine-2,4(1H,3H)-dione] was tested, and the IC50 was 120 nM.

For `CCn1c(=O)c2c(C)c(CN3CCCNC3=O)sc2n(CCC(F)(F)F)c1=O` [Example 107, 3-Ethyl-5-methyl-6-[(2-oxotetrahydropyrimidin-1(2H)-yl)methyl]-1-(3,3,3-trifluoropropyl)thieno[2,3-d]pyrimidine-2,4(1H,3H)-dione], the IC50 was 11 nM.

`COC(C)(C)Cn1c(=O)c2c(C)c(CN3CCN(C)C3=O)sc2n(CCC(F)(F)F)c1=O` [Example 338, 3-(2-Methoxy-2-methylpropyl)-5-methyl-6-[(3-methyl-2-oxoimidazolidin-1-yl)methyl]-1-(3,3,3-trifluoropropyl)thieno[2,3-d]pyrimidine-2,4(1H,3H)-dione] showed an IC50 of 120 nM.

With `COCCn1c(=O)c2c(C)c(Cn3nc[nH]c3=O)sc2n(CCC(F)(F)F)c1=O` [Example 439, 3-(2-Methoxyethyl)-5-methyl-6-[(5-oxo-4,5-dihydro-1H-1,2,4-triazol-1-yl)methyl]-1-(3,3,3-trifluoropropyl)thieno[2,3-d]pyrimidine-2,4(1H,3H)-dione] the IC50 was 180 nM.

With `COCCn1c(=O)c2c(C)c(CN3CCNC3=NC(=O)OC)sc2n(CCC(F)(F)F)c1=O` [Example 385, Methyl [1-{[3-(2-methoxyethyl)-5-methyl-2,4-dioxo-1-(3,3,3-trifluoropropyl)-1,2,3,4-tetrahydrothieno[2,3-d]pyrimidin-6-yl]methyl}imidazolidin-2-ylidene]carbamate] the IC50 was 4.7 nM.

For `Cc1c(CN2CCNC2=O)sc2c1c(=O)n(C(C)C)c(=O)n2CC1CCO1` (single isomer, unassigned) [Example 185, 3-Isopropyl-5-methyl-1-(oxetan-2-ylmethyl)-6-[(2-oxoimidazolidin-1-yl)methyl]thieno[2,3-d]pyrimidine-2,4(1H,3H)-dione], the IC50 was 60 nM.

For `Cc1c(CN2CCNC2=S)sc2c1c(=O)n(CC(C)(C)C)c(=O)n2CCCF` [Example 150, 3-(2,2-Dimethylpropyl)-1-(3-fluoropropyl)-5-methyl-6-[(2-thioxoimidazolidin-1-yl)methyl]thieno[2,3-d]pyrimidine-2,4(1H,3H)-dione], the IC50 was 6 nM.

Source: patent publication US10428083B2, “Heterocyclylmethyl-thienouracile as antagonists of the adenosine-A2B-receptor” (BAYER PHARMA AKTIENGESELLSCHAFT, priority 2015, dated 2019)
